Results: publication PMC6199744, “Development of Chemical Proteomics for the Folateome and Analysis of the Kinetoplastid Folateome” (ACS Infectious Diseases, 2018)
Like-named read-outs stand apart in the source and are kept apart here.

What was measured:
Format in all cases: binding
[1] = molecular target: T1, HeLa cell extract proteins (Homo sapiens, UniProt Q9UBB4); conditions: protein Ataxin-10; HeLa
T1 construct: endogenous in cells; host or cells: HeLa cell extract
T1 sequence (Q9UBB4 1-475): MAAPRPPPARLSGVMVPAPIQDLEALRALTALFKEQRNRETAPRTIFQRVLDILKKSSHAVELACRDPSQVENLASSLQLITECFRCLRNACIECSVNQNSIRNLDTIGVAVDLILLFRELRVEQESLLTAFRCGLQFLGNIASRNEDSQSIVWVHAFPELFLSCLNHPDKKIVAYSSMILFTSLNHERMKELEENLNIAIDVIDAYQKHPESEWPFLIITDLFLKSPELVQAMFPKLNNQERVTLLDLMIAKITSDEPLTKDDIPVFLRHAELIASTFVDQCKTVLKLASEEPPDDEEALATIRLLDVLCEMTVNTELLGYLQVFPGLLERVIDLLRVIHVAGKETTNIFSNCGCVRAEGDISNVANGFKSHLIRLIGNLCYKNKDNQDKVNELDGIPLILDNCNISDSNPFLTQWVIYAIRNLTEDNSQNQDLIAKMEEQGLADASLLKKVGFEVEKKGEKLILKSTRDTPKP

[2] = molecular target: T2, HeLa cell extract proteins (Homo sapiens, UniProt Q9UNM6)
T2 construct: endogenous in cells; host or cells: HeLa cell extract
T2 sequence (Q9UNM6 1-376): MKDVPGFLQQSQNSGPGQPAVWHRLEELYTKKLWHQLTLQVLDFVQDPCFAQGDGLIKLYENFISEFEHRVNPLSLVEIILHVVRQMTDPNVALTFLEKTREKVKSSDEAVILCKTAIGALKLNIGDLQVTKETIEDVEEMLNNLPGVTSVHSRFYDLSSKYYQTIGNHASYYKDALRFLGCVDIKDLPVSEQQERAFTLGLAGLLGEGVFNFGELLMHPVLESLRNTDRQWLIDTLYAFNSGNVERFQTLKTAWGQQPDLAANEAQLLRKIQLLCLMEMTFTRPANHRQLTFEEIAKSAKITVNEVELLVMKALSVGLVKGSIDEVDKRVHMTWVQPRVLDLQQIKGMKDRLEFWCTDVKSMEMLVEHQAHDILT

[3] = molecular target: T3, HeLa cell extract proteins (Homo sapiens, UniProt Q9UPU5)
T3 construct: endogenous in cells; host or cells: HeLa cell extract
T3 sequence (Q9UPU5 whole entry): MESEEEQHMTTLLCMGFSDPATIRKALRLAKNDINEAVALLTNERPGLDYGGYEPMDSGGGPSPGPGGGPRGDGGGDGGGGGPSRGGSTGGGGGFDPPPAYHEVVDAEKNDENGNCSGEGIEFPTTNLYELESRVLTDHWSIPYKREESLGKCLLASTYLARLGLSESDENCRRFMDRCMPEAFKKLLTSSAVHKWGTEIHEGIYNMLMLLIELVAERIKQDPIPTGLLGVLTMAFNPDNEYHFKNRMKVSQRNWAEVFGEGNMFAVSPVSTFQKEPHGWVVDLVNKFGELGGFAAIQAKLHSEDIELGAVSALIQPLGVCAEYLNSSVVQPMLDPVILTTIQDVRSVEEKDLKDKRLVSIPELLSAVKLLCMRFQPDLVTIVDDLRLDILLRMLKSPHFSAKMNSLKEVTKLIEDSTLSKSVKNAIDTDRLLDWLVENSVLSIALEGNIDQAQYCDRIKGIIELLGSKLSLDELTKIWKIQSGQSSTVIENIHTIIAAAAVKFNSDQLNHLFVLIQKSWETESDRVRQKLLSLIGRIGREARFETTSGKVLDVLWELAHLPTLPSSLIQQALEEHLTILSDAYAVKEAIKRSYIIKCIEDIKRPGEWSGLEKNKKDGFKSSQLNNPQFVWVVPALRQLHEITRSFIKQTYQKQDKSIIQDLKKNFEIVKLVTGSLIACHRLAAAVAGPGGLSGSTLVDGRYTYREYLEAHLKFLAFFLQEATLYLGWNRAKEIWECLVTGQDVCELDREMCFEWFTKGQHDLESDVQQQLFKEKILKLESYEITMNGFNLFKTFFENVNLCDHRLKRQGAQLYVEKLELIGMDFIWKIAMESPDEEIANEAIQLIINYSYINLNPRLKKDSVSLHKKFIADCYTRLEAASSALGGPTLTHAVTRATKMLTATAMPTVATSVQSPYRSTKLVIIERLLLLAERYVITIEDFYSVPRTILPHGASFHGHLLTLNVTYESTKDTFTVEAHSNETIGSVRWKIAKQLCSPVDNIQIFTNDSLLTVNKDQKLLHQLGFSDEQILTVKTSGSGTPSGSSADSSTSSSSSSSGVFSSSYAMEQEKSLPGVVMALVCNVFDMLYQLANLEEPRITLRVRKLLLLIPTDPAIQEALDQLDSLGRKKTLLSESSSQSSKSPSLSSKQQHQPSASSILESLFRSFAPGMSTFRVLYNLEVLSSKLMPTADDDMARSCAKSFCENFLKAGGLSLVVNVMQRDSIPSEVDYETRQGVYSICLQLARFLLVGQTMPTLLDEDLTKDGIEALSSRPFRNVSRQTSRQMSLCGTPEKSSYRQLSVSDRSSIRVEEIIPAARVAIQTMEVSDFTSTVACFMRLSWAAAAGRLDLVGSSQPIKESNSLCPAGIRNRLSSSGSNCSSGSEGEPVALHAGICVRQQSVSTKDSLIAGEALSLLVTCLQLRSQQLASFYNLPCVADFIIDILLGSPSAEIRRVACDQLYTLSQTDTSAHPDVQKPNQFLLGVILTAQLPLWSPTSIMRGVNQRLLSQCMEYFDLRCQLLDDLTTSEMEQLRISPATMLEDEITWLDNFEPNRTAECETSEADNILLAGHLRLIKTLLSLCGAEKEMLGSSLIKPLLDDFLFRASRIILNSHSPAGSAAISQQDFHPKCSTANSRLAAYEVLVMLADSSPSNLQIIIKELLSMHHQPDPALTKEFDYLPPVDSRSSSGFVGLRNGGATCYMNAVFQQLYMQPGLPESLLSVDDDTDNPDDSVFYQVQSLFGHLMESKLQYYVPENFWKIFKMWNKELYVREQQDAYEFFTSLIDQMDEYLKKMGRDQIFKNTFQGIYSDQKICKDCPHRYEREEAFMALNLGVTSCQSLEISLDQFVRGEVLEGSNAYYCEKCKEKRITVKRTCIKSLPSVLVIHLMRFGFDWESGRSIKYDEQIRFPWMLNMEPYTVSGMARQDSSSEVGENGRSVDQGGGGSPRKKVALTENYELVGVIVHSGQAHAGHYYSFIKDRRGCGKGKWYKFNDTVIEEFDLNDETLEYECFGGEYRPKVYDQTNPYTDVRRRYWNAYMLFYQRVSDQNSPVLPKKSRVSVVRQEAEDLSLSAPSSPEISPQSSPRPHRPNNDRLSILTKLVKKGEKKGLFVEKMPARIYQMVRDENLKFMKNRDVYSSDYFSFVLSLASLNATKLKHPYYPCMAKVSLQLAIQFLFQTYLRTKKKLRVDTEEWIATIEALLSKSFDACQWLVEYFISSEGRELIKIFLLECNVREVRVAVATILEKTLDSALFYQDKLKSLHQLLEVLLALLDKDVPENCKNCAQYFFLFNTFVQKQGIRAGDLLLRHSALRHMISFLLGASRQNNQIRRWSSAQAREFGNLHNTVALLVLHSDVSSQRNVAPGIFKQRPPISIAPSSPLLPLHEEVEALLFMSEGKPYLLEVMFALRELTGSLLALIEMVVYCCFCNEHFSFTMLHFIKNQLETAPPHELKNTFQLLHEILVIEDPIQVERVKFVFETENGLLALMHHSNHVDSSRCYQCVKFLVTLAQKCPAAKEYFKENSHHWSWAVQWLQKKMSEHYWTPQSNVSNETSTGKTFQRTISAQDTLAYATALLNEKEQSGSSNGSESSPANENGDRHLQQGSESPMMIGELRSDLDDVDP

[4] = molecular target: T4, HeLa cell extract proteins (Homo sapiens, UniProt P62888)
T4 construct: endogenous in cells; host or cells: HeLa cell extract

[5] = molecular target: T5, HeLa cell extract proteins (Homo sapiens, UniProt P14174)
T5 construct: endogenous in cells; host or cells: HeLa cell extract
T5 sequence (P14174 1-115): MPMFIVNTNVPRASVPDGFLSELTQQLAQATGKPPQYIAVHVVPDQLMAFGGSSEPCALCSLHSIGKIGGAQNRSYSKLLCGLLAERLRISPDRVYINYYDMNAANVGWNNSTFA

[6] = molecular target: T6, HeLa cell extract proteins (Homo sapiens, UniProt P05109)
T6 construct: endogenous in cells; host or cells: HeLa cell extract
T6 sequence (P05109 1-93): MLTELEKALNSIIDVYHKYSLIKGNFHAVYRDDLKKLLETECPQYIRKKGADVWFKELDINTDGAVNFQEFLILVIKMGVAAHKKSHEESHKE

[7] = molecular target: T7, HeLa cell extract proteins (Homo sapiens, UniProt O94855)
T7 construct: endogenous in cells; host or cells: HeLa cell extract
T7 sequence (O94855 1-1032): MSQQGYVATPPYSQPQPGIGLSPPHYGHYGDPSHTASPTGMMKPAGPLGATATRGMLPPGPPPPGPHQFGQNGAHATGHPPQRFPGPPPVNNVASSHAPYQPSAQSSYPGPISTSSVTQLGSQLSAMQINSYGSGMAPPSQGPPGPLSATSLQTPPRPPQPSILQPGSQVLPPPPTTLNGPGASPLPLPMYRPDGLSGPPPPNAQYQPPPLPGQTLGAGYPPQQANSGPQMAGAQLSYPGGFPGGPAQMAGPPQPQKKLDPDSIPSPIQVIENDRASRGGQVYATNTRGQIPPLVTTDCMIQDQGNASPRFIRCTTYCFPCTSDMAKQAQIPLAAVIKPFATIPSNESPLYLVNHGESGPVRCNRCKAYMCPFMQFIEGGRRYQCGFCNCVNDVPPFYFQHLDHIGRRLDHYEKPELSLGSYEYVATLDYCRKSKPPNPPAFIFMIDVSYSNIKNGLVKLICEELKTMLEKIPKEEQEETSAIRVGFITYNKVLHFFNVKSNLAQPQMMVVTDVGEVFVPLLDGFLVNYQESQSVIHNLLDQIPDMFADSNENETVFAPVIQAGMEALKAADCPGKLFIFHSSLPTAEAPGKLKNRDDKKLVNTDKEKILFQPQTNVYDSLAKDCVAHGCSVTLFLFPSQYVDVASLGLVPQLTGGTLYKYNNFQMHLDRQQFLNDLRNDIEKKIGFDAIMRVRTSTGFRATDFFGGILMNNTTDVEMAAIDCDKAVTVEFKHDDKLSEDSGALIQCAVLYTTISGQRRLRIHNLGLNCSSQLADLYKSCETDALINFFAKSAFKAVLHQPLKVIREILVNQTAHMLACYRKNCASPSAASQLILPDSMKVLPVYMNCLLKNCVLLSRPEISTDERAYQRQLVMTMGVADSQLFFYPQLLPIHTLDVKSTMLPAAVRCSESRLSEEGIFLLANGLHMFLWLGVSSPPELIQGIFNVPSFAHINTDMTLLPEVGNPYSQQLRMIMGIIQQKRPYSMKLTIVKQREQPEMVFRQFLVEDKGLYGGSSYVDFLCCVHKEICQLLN

[8] = HeLa, protein LOC284889 (MACROPHAGE MIGRATION INHIBITORY FACTOR)

SMILES | fold changes relative to vehicle control [1] | fold changes relative to vehicle control ([2]; protein PSMD13, HeLa) | fold changes relative to vehicle control ([3]; protein USP24, HeLa) | fold changes relative to vehicle control ([4]; protein RPL30, HeLa) | fold changes relative to vehicle control [5, 8] | fold changes relative to vehicle control ([6]; protein S100A8, HeLa) | fold changes relative to vehicle control ([7]; HeLa, captured protein SEC24D) | further results
Nc1nc2cccc(-c3ccccc3)c2n1Cc1ccc(Cl)c(Cl)c1 [compound 3] | 1.04 | – | – | – | – | – | – | –
CCCCCCOc1ccc(Cc2cnc(N)nc2N)cc1 [compound 1] | 1.14 | – | – | – | – | – | – | –
NCCCNc1ccc(C(=O)NC(CCC(=O)O)C(=O)O)cc1 (stereo not drawn) [compound 7] | – | 0.86 | 0.84 | 0.92 | 1.25 | 0.26 | 1.04 | –
CCCCCCOc1cccc(Cc2cnc(N)nc2N)c1 [compound 2] | 1.4 | – | – | – | – | – | – | –
NCCOCCOCC(=O)Nc1nc2ncc(CNc3ccc(C(=O)NC(CCC(=O)O)C(=O)O)cc3)nc2c(=O)[nH]1 (stereo not drawn) [compound 6] | – | 1.02 | 1.01 | 1 | 1.26 | 0.4 | 1.15 | –
Nc1nc2[nH]cc(CCc3ccc(C(=O)N[C@@H](CCC(=O)O)C(=O)O)cc3)c2c(=O)[nH]1 [PTX, pemetrexed] | – | – | – | – | – | – | – | fold changes relative to vehicle control [2]: 0.88; fold changes relative to vehicle control [3]: 0.89; fold changes relative to vehicle control [4]: 0.89; fold changes relative to vehicle control [5]: 1.29; fold changes relative to vehicle control [6]: 0.34; fold changes relative to vehicle control [7]: 1.09
Nc1nc2c(c(=O)[nH]1)N(C=O)C(CNc1ccc(C(=O)N[C@@H](CCC(=O)O)C(=O)O)cc1)CN2 (stereo partly drawn) [LEU, leucovorin] | – | 0.95 | 0.85 | 0.86 | 1.32 | 0.28 | 1.12 | –
